Results on 16 compounds are retold here after patent US11066414B2, “Cot modulators and methods of use thereof” (Gilead Sciences, Inc., priority 2015, dated 2021).

Like-named read-outs stand apart in the source and are kept apart here.

One test deals with Human Cot (Homo sapiens (Human), UniProt P41279). The experiment in a line: High Throughput Cot Biochemical Assay.
For the next test, the system named is TNFα. The experiment in a line: Cot Monocyte TNFα Cell Based Assay.
Where [1] appears, read: IC50 HTRF, Cot HTRF (TR-FRET KinEASE) biochemical assay, 400 μM ATP.
The mark [2] stands for this setting: Homo sapiens, Monocyte, read-out: EC50 TNF, LPS-stimulated human monocytes, TNFα TR-FRET.
[3] abbreviates: IC50 HTRF, Cot HTRF (TR-FRET) biochemical assay.
[4] abbreviates: Homo sapiens, Monocyte, read-out: EC50 TNF, LPS-stimulated human monocytes, TNFα.

As usually defined, the IC50 is the concentration that inhibits the measured activity by half. What is called EC50 is the midpoint of the concentration-response curve.

Human Cot, sequence (P41279 30-397): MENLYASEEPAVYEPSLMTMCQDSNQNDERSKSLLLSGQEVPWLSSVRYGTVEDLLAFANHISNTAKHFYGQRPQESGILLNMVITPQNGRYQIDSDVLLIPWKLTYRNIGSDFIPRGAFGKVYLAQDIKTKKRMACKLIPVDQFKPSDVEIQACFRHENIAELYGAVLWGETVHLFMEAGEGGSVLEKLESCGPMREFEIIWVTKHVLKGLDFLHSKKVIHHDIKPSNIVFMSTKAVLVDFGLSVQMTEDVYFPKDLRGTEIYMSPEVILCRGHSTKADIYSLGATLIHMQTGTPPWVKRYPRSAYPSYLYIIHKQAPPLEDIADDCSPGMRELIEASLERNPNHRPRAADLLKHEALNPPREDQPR
Method for Human Cot: Human Cot enzyme activity was measured using KinEASE (Cisbio), a time-resolved fluorescence resonance energy transfer (TR-FRET) immunoassay. In this assay, Cot-catalyzes the phosporylation of a XL665-labeled peptide substrate. Europium conjugated phospho-tyrosine specific antibody binds the resulting phosphorylated peptide. Formation of phosphorylated peptide is quantified by TR-FRET with Europium as the donor and XL665 the acceptor in a 2-step endpoint assay. […] In brief, test compounds serially diluted in DMSO were delivered into Proxy white, low volume, 384 well plates using the Echo 550 acoustic liquid dispenser (Labcyte®). Cot enzyme and substrates were dispensed into assay plates using a Multi-Flo (Bio-Tek Instruments). The standard 5 μL reaction mixture contained 400 μM ATP, 1 μM STK3 peptide, 5 nM of Cot in reaction buffer (10 mM MOPS, pH 7.0, 0.02% NaN3, 0.5 mg/mL BSA, 10 mM MgOAc, 1 mM DTT, 0.025% NP-40, 1.5% glycerol) and 0.1% DMSO.

In turn, `Cn1c(=O)ccc2c([C@H](Nc3cc(C#N)c4ncc(C#N)c(NCC(C)(C)C)c4c3)c3cn(C45CC(C4)C5)nn3)cccc21` [Example 887, (S)-6-(((1-(bicyclo[1.1.1]pentan-1-yl)-1H-1,2,3-triazol-4-yl)(1-methyl-2-oxo-1,2-dihydroquinolin-5-yl)methyl)amino)-4-(neopentylamino)quinoline-3,8-dicarbonitrile] showed a half-maximal inhibitory concentration (IC50) at Human Cot (setting [1]) of 3 nM. Moreover, the concentration for a half-maximal effect (EC50) with TNFα (setting [2]) came out at 33 nM.
Turning to `Cn1ncc2c([C@H](Nc3cc(C#N)c4ncc(C#N)c(NCC(C)(C)C)c4c3)c3cn(C4(C)CC4)nn3)cccc21` [Example 529, (S)-6-(((1-methyl-1H-indazol-4-yl)(1-(1-methylcyclopropyl)-1H-1,2,3-triazol-4-yl)methyl)amino)-4-(neopentylamino)-quinoline-3,8-dicarbonitrile], the midpoint of inhibition against Human Cot (setting [3]), the IC50, lay at 2 nM. Also, in the test with TNFα (setting [4]), the concentration giving a half-maximal response (EC50) was found to be 50 nM.
In the case of `CC(C)(C)CNc1c(C#N)cnc2c(C#N)cc(N[C@H](c3cn(C4(C(F)F)CC4)nn3)c3cccc4c(=O)[nH]ccc34)cc12` [Example 876, (S)-6-(((1-(1-(difluoromethyl)cyclopropyl)-1H-1,2,3-triazol-4-yl)(1-oxo-1,2-dihydroisoquinolin-5-yl)methyl)amino)-4-(neopentylamino)quinoline-3,8-dicarbonitrile], 2 nM corresponded to half-maximal inhibition against Human Cot (setting [1]) (IC50). The concentration for a half-maximal effect (EC50) with TNFα (setting [2]) is 385 nM.
On Human Cot (setting [3]), `Cn1ccc2c([C@H](Nc3cc(Cl)c4ncc(C#N)c(NCC(C)(C)C(F)(F)F)c4c3)c3cn(C4(C(F)F)CC4)nn3)cccc2c1=O` [Example 724, (S)-8-chloro-6-(((1-(1-(difluoromethyl)cyclopropyl)-1H-1,2,3-triazol-4-yl)(2-methyl-1-oxo-1,2-dihydroisoquinolin-5-yl)methyl)amino)-4-((3,3,3-trifluoro-2,2-dimethylpropyl)amino)quinoline-3-carbonitrile] had an IC50 of 3 nM. Further, the EC50 in the test with TNFα (setting [4]) stood at 44 nM.
Regarding `CC[C@@H](Nc1c(C#N)cnc2c(F)cc(N[C@@H](c3ccc(F)nc3)c3cn(C4CC4)nn3)cc12)c1ccccc1` [Example 120, 6-(((S)-(-cyclopropyl-1H-1,2,3-triazol-4-yl)(6-fluoropyridin-3-yl)methyl-d)amino)-8-fluoro-4-(((R)-1-phenylpropyl)amino)quinolme-3-carbonitrile], the 50% inhibitory concentration (IC50) at Human Cot (read-out: IC50 HTRF, Cot HTRF (TR-FRET) biochemical assay) amounted to 5 nM. The EC50 in the test with TNFα (read-out: EC50 TNF, LPS-stimulated human monocytes, TNFα) is 137 nM.
In the case of `CC(C)(C)CNc1c(C#N)cnc2c(Cl)cc(N[C@H](c3cn(C4CC4)nn3)c3cccc4ncsc34)cc12` [Example 418, (S)-6-((benzo[d]thiazol-7-yl(1-cyclopropyl-1H-1,2,3-triazol-4-yl)methyl)amino)-8-chloro-4-(neopentylamino)quinoline-3-carbonitrile], the midpoint of inhibition against Human Cot (setting [3]), the IC50, lay at 2 nM. Also, in the test with TNFα (setting [4]), the EC50 was found to be 45 nM.
`Cc1nc(F)ccc1[C@H](Nc1cc(Cl)c2ncc(C#N)c(NCC(C)(C)C)c2c1)c1cn(C2CC23CC3)nn1` (stereo partly drawn) [Example 766, 8-chloro-6-(((1S)-(6-fluoro-2-methylpyridin-3-yl)(1-(spiro[2.2]pentan-1-yl)-1H-1,2,3-triazol-4-yl)methyl)amino)-4-(neopentylamino)quinoline-3-carbonitrile] returned a concentration for half-maximal inhibition (IC50) against Human Cot (setting [3]) of 2 nM. Also, the EC50 with TNFα (setting [4]) amounted to 30 nM.
`Cn1cc2c([C@H](Nc3cc(Cl)c4ncc(C#N)c(NCC(C)(C)C)c4c3)c3cn(C4(C(F)F)CC4)nn3)cccc2n1` [Example 497, (S)-8-chloro-6-(((1-(1-(difluoromethyl)-cyclopropyl)-1H-1,2,3-triazol-4-yl)(2-methyl-2H-indazol-4-yl)methyl)amino)-4-(neopentylamino)quinoline-3-carbonitrile] had a 50% inhibitory concentration (IC50) against Human Cot (setting [3]) of 6 nM. Also, in the test with TNFα (setting [4]), the EC50 is 379 nM.
The corresponding values for `Cn1nccc1[C@H](Nc1cc(Cl)c2ncc(C#N)c(NCC(C)(C)C)c2c1)c1cn(C2(C(F)F)CC2)nn1` [Example 665, (S)-8-chloro-6-(((1-(1-(difluoromethyl)cyclopropyl)-1H-1,2,3-triazol-4-yl)(1-methyl-1H-pyrazol-5-yl)methyl)amino)-4-(neopentylamino)quinoline-3-carbonitrile] are 6 nM and 198 nM.
On Human Cot (setting [3]), `COC[C@H](Nc1c(C#N)cnc2c(Cl)cc(N[C@@H](c3cccnc3)c3c[nH]nn3)cc12)c1ccccc1` [Example 203, 8-chloro-4-(((R)-2-methoxy-1-phenylethyl)amino)-6-(((S)-pyridin-3-yl(1H-1,2,3-triazol-4-yl)methyl)amino)quinoline-3-carbonitrile] displayed an IC50 of 6920 nM. Moreover, the EC50 with TNFα (setting [4]) came out at 9090 nM.
For `COc1nccc2c([C@H](Nc3cc(Cl)c4ncc(C#N)c(NCC(C)(C)C)c4c3)c3cn(C4(C(F)(F)F)CC4)nn3)cccc12` [Example 929, (S)-8-chloro-6-(((1-methoxylsoquinolin-5-yl)(1-(1-(trifluoromethyl)cyclopropyl)-1H-1,2,3-triazol-4-yl)methyl)amino)-4-(neopentylamino)quinoline-3-carbonitrile], at Human Cot (read-out: IC50 HTRF, Cot HTRF (TR-FRET KinEASE) biochemical assay, 400 μM ATP), the 50% inhibitory concentration (IC50) is 11 nM. Also, the concentration for a half-maximal effect (EC50) with TNFα (read-out: EC50 TNF, LPS-stimulated human monocytes, TNFα TR-FRET) amounted to 157 nM.
For the compound `CCn1ccc2c([C@H](Nc3cc(Cl)c4ncc(C#N)c(NCC(C)(C)C)c4c3)c3cn(C4(C)CC4)nn3)cccc2c1=O` [Example 773, (S)-8-chloro-6-(((2-ethyl-1-oxo-1,2-dihydroisoquinolin-5-yl)(1-(1-methylcyclopropyl)-1H-1,2,3-triazol-4-yl)methyl)amino)-4-(neopentylamino)quinoline-3-carbonitrile], the IC50 against Human Cot (setting [3]) came out at 2 nM. Besides, in the test on TNFα (setting [4]), the EC50 was 35 nM.
For `CC(C)(C)CNc1c(C#N)cnc2c(Cl)cc(N[C@H](c3cn(C4(C(F)(F)F)CC4)nn3)c3ccc(Cl)c4ncccc34)cc12` [Example 709, (S)-8-chloro-6-(((8-chloroquinolin-5-yl)(1-(1-(trifluoromethyl)cyclopropyl)-1H-1,2,3-triazol-4-yl)methyl)amino)-4-(neopentylamino)quinoline-3-carbonitrile], in that order: 17 nM and 187 nM.
The corresponding values for `CC(C)(C)CNc1c(C#N)cnc2c(C#N)cc(N[C@H](c3cn(C4(C(F)(F)F)CC4)nn3)c3cccc4[nH]ncc34)cc12` [Example 472, (S)-6-(((1H-indazol-4-yl)(1-(1-(trifluoro-methyl)cyclopropyl)-1H-1,2,3-triazol-4-yl)methyl)amino)-4-(neopentylamino)-quinoline-3,8-dicarbonitrile] are 4 nM and 78 nM.
As to `[2H]C(Nc1cc(Cl)c2ncc(C#N)c(NC(CCC#N)c3ccccc3)c2c1)(c1ccc(F)nc1)c1cn(C2CC2)nn1` (centres unmarked) [Example 93, 8-chloro-4-((3-cyano-1-phenylpropyl)amino)-6-(((1-cyclopropyl-1H-1,2,3-triazol-4-yl)(6-fluoropyridin-3-yl)methyl-d)amino)quinoline-3-carbonitrile], it took 7 nM to reach half-maximal inhibition against Human Cot (setting [3]) (IC50). In addition, in the test with TNFα (setting [4]), the concentration giving a half-maximal response (EC50) amounted to 74 nM.
Take `Cn1ccc2c([C@H](Nc3cc(C#N)c4ncc(C#N)c(NCC(C)(C)C)c4c3)c3cn(C4(C)COC4)nn3)cccc2c1=O` [Example 853, (S)-6-(((2-methyl-1-oxo-1,2-dihydroisoquinolin-5-yl)(1-(3-methyloxetan-3-yl)-1H-1,2,3-triazol-4-yl)methyl)amino)-4-(neopentylamino)quinoline-3,8-dicarbonitrile]: half-maximal inhibition against Human Cot (setting [1]) (IC50) was put at 1 nM. The 50% effective concentration (EC50) with TNFα (setting [2]) was 98 nM.
